Data as given in patent US11000033B2, “Ketone or oxime compound, and herbicide” (NISSAN CHEMICAL CORPORATION, priority 2014, dated 2021).

Experiments:
Assay type in all cases: in vivo
Apera spica-venti [1] = assay: Test Example 5: herbicidal effect by foliage application, plastic box (symbol L); conditions: 320 g/ha, 3 weeks after application
In short: (§1)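 Seeds were sown in sterilized diluvial soil, covered with about 1.5 cm of soil and grown 14 days in a greenhouse at 25° C. to 30° C. An emulsifiable formulation diluted in water to a set rate was sprayed over foliage, and injury was scored 3 weeks later.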

Apera spica-venti [2] = assay: Test Example 4: herbicidal effect by soil treatment (symbol L); conditions: application herbicide amount 320 g/ha
In short: (§2)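 Seeds were sown in sterilized diluvial soil, covered with about 1.5 cm of soil, and the soil surface was sprayed with a water-diluted emulsion of the compound at a predetermined rate. Plants grew in a greenhouse at 25° C. to 30° C.; effects were scored visually 3 weeks after application.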

Chenopodium album = assay: Test Example 5: herbicidal effect by foliage application, plastic box (symbol O); conditions: 320 g/ha, 3 weeks after application
In short: as §1

Stellaria media [3] = assay: Test Example 5: herbicidal effect by foliage application, plastic box (symbol P); conditions: 320 g/ha, 3 weeks after application
In short: as §1

Avena fatua = assay: Test Example 5: herbicidal effect by foliage application, plastic box (symbol I); conditions: 320 g/ha, 3 weeks after application
In short: as §1

Alopecurus myosuroides = assay: Test Example 5: herbicidal effect by foliage application, plastic box (symbol J); conditions: 320 g/ha, 3 weeks after application
In short: as §1

Setaria viridis = assay: Test Example 4: herbicidal effect by soil treatment (symbol G); conditions: application herbicide amount 320 g/ha
In short: as §2

Stellaria media [4] = assay: Test Example 4: herbicidal effect by soil treatment (symbol P); conditions: application herbicide amount 320 g/ha
In short: as §2

corn = assay: Test Example 5: effect on crop by foliage application, plastic box (symbol c); conditions: 320 g/ha, 3 weeks after application
In short: (§3)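 Seeds were sown in spots in sterilized diluvial soil held in a plastic box 21 cm × 13 cm × 7 cm deep, covered with about 1.5 cm of soil, and grown in a greenhouse at 25° C. to 30° C.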

[5] = system: Echinochloa crus-galli var. crus-galli; assay: Test Example 3: herbicidal effect by foliage application, Wagner pot (symbol H); conditions: application herbicide amount 320 g/ha
In short: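 Weeds and rice were sown in alluvial soil under 0.1–0.5 cm of standing water and grown for 14 days in a 25–30 °C greenhouse. An emulsion of the compound, diluted in water to a set dose, was sprayed evenly onto the foliage. Effect was scored against fixed criteria 3 weeks after treatment.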

[6] = system: directly sowed rice plant; assay: Test Example 3: effect on crop by foliage application, Wagner pot (symbol b); conditions: application herbicide amount 320 g/ha
In short: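 Alluvial soil in a 1/10000-are Wagner pot was flooded to a water depth of 0.1–0.5 cm. Echinochloa crus-galli var. crus-galli, Leptochloa chinensis, Cyperus difformis and rice were sown into it and grown in a greenhouse at 25–30 °C.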

Digitaria ciliaris = assay: Test Example 5: herbicidal effect by foliage application, plastic box (symbol F); conditions: 320 g/ha, 3 weeks after application
In short: as §1

Lolium multiflorum Lam. = assay: Test Example 5: herbicidal effect by foliage application, plastic box (symbol K); conditions: 320 g/ha, 3 weeks after application
In short: as §1

soybean = assay: Test Example 4: effect on crop by soil treatment (symbol d); conditions: application herbicide amount 320 g/ha
In short: (§4)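 Steps: fill box with sterilized diluvial soil; sow seed spot-like; cover with ~1.5 cm soil; grow in greenhouse (25° C. to 30° C.).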

rapeseed = assay: Test Example 4: effect on crop by soil treatment (symbol g); conditions: application herbicide amount 320 g/ha
In short: as §4

wheat = assay: Test Example 4: effect on crop by soil treatment (symbol e); conditions: application herbicide amount 320 g/ha
In short: as §4

rice plant = assay: Test Example 5: effect on crop by foliage application, plastic box (symbol b); conditions: 320 g/ha, 3 weeks after application
In short: as §3

Row | SMILES | L: Apera spica-venti, herbicidal effect grade (Apera spica-venti [1]) | L (Apera spica-venti) herbicidal effect grade (Apera spica-venti [2]) | O: Chenopodium album, herbicidal effect grade (Chenopodium album) | P: Stellaria media, herbicidal effect grade (Stellaria media [3]) | I: Avena fatua, herbicidal effect grade (Avena fatua) | J: Alopecurus myosuroides, herbicidal effect grade (Alopecurus myosuroides) | G (Setaria viridis) herbicidal effect grade (Setaria viridis) | P (Stellaria media) herbicidal effect grade (Stellaria media [4]) | c: corn, effect on crop grade (corn) | herbicidal effect on H (Echinochloa crus-galli var. crus-galli), grade 0-5 [5] | effect on crop b (directly sowed rice plant), grade 0-5 [6] | F: Digitaria ciliaris, herbicidal effect grade (Digitaria ciliaris) | K: Lolium multiflorum Lam., herbicidal effect grade (Lolium multiflorum Lam.) | d (soybean) effect on crop grade (soybean) | g (rapeseed) effect on crop grade (rapeseed) | e (wheat) effect on crop grade (wheat) | b: directly sowed rice plant, effect on crop grade (rice plant)
1 | CON=C(C)CC1CC(OC(=O)COc2ccc(OC)cc2)=C(c2c(C)cc(C)cc2C)C1=O (stereo not shown) [1-069] | 5 (Herbicidal ratio of 90% or more (almost completely withered)) | 5 (Herbicidal ratio of 90% or more (almost completely withered)) | 2 (Herbicidal ratio of 20% or higher and lower than 40%) | 3 (Herbicidal ratio of 40% or higher and lower than 70%) | 5 (Herbicidal ratio of 90% or more (almost completely withered)) | 5 (Herbicidal ratio of 90% or more (almost completely withered)) | 4 (Herbicidal ratio of 70% or higher and lower than 90%) | 0 (Herbicidal ratio of 5% or lower (almost no effect)) | 3 (Herbicidal ratio of 40% or higher and lower than 70%) | 5 (Herbicidal ratio of 90% or more (almost completely withered)) | 5 (Herbicidal ratio of 90% or more (almost completely withered)) | 5 (Herbicidal ratio of 90% or more (almost completely withered)) | 5 (Herbicidal ratio of 90% or more (almost completely withered)) | 0 (Herbicidal ratio of 5% or lower (almost no effect)) | 4 (Herbicidal ratio of 70% or higher and lower than 90%) | 4 (Herbicidal ratio of 70% or higher and lower than 90%) | 5 (Herbicidal ratio of 90% or more (almost completely withered))
2 | CON=C(C)CC1CC(OC)=C(c2c(C)cc(C)cc2C)C1=O (stereo not shown) [1-001, 2-mesityl-3-methoxy-5-{2-(methoxyimino)propyl}cyclopent-2-enone] | 0 (Herbicidal ratio of 5% or lower (almost no effect)) | 0 (Herbicidal ratio of 5% or lower (almost no effect)) | 0 (Herbicidal ratio of 5% or lower (almost no effect)) | 0 (Herbicidal ratio of 5% or lower (almost no effect)) | 0 (Herbicidal ratio of 5% or lower (almost no effect)) | 0 (Herbicidal ratio of 5% or lower (almost no effect)) | 0 (Herbicidal ratio of 5% or lower (almost no effect)) | 0 (Herbicidal ratio of 5% or lower (almost no effect)) | 0 (Herbicidal ratio of 5% or lower (almost no effect)) | 0 (Herbicidal ratio of 5% or lower (almost no effect)) | 0 (Herbicidal ratio of 5% or lower (almost no effect)) | 0 (Herbicidal ratio of 5% or lower (almost no effect)) | 0 (Herbicidal ratio of 5% or lower (almost no effect)) | 0 (Herbicidal ratio of 5% or lower (almost no effect)) | 0 (Herbicidal ratio of 5% or lower (almost no effect)) | 0 (Herbicidal ratio of 5% or lower (almost no effect)) | 0 (Herbicidal ratio of 5% or lower (almost no effect))
3 | CON=C(C)CC1CC(O)=C(c2c(C)cc(C)cc2C)C1=O (stereo not shown) [1-002, 3-hydroxy-2-mesityl-5-{2-(methoxyimino)propyl}cyclopent-2-enone] | 5 (Herbicidal ratio of 90% or more (almost completely withered)) | 5 (Herbicidal ratio of 90% or more (almost completely withered)) | 4 (Herbicidal ratio of 70% or higher and lower than 90%) | 4 (Herbicidal ratio of 70% or higher and lower than 90%) | 5 (Herbicidal ratio of 90% or more (almost completely withered)) | 5 (Herbicidal ratio of 90% or more (almost completely withered)) | 3 (Herbicidal ratio of 40% or higher and lower than 70%) | 3 (Herbicidal ratio of 40% or higher and lower than 70%) | 5 (Herbicidal ratio of 90% or more (almost completely withered)) | 5 (Herbicidal ratio of 90% or more (almost completely withered)) | 5 (Herbicidal ratio of 90% or more (almost completely withered)) | 5 (Herbicidal ratio of 90% or more (almost completely withered)) | 5 (Herbicidal ratio of 90% or more (almost completely withered)) | 0 (Herbicidal ratio of 5% or lower (almost no effect)) | 5 (Herbicidal ratio of 90% or more (almost completely withered)) | 4 (Herbicidal ratio of 70% or higher and lower than 90%) | 5 (Herbicidal ratio of 90% or more (almost completely withered))
4 | CON=C(CC1CC(O)=C(c2c(C)cc(C)cc2C)C1=O)C(C)C (stereo not shown) [1-048] | 5 (Herbicidal ratio of 90% or more (almost completely withered)) | 5 (Herbicidal ratio of 90% or more (almost completely withered)) | 3 (Herbicidal ratio of 40% or higher and lower than 70%) | 3 (Herbicidal ratio of 40% or higher and lower than 70%) | 4 (Herbicidal ratio of 70% or higher and lower than 90%) | 5 (Herbicidal ratio of 90% or more (almost completely withered)) | 5 (Herbicidal ratio of 90% or more (almost completely withered)) | 0 (Herbicidal ratio of 5% or lower (almost no effect)) | 4 (Herbicidal ratio of 70% or higher and lower than 90%) | 5 (Herbicidal ratio of 90% or more (almost completely withered)) | 5 (Herbicidal ratio of 90% or more (almost completely withered)) | 4 (Herbicidal ratio of 70% or higher and lower than 90%) | 5 (Herbicidal ratio of 90% or more (almost completely withered)) | 0 (Herbicidal ratio of 5% or lower (almost no effect)) | 0 (Herbicidal ratio of 5% or lower (almost no effect)) | 2 (Herbicidal ratio of 20% or higher and lower than 40%) | 5 (Herbicidal ratio of 90% or more (almost completely withered))
5 | CC(CC1CC(O)=C(c2c(C)cc(C)cc2C)C1=O)=NOCC[Si](C)(C)C (stereo not shown) [1-055] | 5 (Herbicidal ratio of 90% or more (almost completely withered)) | 2 (Herbicidal ratio of 20% or higher and lower than 40%) | 1 (Herbicidal ratio of 5% or higher and lower than 20%) | 0 (Herbicidal ratio of 5% or lower (almost no effect)) | 4 (Herbicidal ratio of 70% or higher and lower than 90%) | 4 (Herbicidal ratio of 70% or higher and lower than 90%) | 4 (Herbicidal ratio of 70% or higher and lower than 90%) | 0 (Herbicidal ratio of 5% or lower (almost no effect)) | 3 (Herbicidal ratio of 40% or higher and lower than 70%) | 5 (Herbicidal ratio of 90% or more (almost completely withered)) | 5 (Herbicidal ratio of 90% or more (almost completely withered)) | 3 (Herbicidal ratio of 40% or higher and lower than 70%) | 5 (Herbicidal ratio of 90% or more (almost completely withered)) | 0 (Herbicidal ratio of 5% or lower (almost no effect)) | 0 (Herbicidal ratio of 5% or lower (almost no effect)) | 0 (Herbicidal ratio of 5% or lower (almost no effect)) | 5 (Herbicidal ratio of 90% or more (almost completely withered))
